Each compound was assayed against Factor D (Homo sapiens, UniProt P00746) (assay: Factor D esterolytic assay (Z-Lys-SBzl thioester substrate, DTNB, 405 nm)). Conditions: substrate Z-Lys-SBzl 1.29 mM, 100 mM HEPES, 500 mM NaCl, pH 7.5, 10% DMSO, tested a minimum of three times.
Assay type: biochemical
Summary of the method: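 Human Factor D hydrolysis of Z-Lys-SBzl (1.29 mM) monitored at 405 nm via DTNB thiol detection for 600 s, 690 nm background subtracted. Buffer 100 mM HEPES, 500 mM NaCl, pH 7.5, 10% DMSO; substrate added immediately or after room-temperature preincubation. IC50 from percent inhibition of rate, at least three tests.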

Chain of Factor D (P00746 26-253): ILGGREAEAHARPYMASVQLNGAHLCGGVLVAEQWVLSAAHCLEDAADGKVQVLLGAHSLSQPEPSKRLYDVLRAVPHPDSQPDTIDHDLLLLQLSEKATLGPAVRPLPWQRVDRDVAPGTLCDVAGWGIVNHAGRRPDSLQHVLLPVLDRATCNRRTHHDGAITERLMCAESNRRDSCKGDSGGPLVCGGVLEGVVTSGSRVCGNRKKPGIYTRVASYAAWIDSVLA

| Structure (SMILES) | IC50 |
| --- | --- |
| C[C@@]12C[C@@H](C(=O)Nc3cccc(Br)n3)N(C(=O)Cn3c4ncnc(N)c4c4cccc(C(=O)O)c43)[C@@H]1C2 [Compound 232a, 4-amino-9-(2-((1R,3S,5R)-3-((6-bromopyridin-2-yl)carbamoyl)-5-methyl-2-azabicyclo[3.1.0]hexan-2-yl)-2-oxoethyl)-9H-pyrimido[4,5-b]indole-8-carboxylic acid] | < 0.1 µM |
| Nc1ncnc2c1c1nc(C(F)(F)F)ccc1n2CC(=O)N1[C@@H]2C[C@@H]2C[C@H]1C(=O)Nc1cccc(Br)n1 [Compound 234a, (1R,3S,5R)-2-(2-(4-amino-6-(trifluoromethyl)-9H-pyrido[2′,3′:4,5]pyrrolo[2,3-d]pyrimidin-9-yl)acetyl)-N-(6-bromopyridin-2-yl)-2-azabicyclo[3.1.0]hexane-3-carboxamide] | < 0.1 µM |
| COc1cc(Cl)cc2c3c(N)ncnc3n(CC(=O)N3[C@@H]4C[C@@H]4C[C@H]3C(=O)Nc3cccc(Br)n3)c12 [Compound 238g, (1R,3S,5R)-2-(2-(4-amino-6-chloro-8-methoxy-9H-pyrimido[4,5-b]indol-9-yl)acetyl)-N-(6-bromopyridin-2-yl)-2-azabicyclo[3.1.0]hexane-3-carboxamide] | < 0.1 µM |
| COc1cc(Cl)cc2c3c(N)ncnc3n(CC(=O)N3[C@H](C(=O)Nc4cccc(Br)n4)C[C@@]4(C)C[C@@H]34)c12 [Compound 239a, (1R,3S,5R)-2-(2-(4-amino-6-chloro-8-methoxy-9H-pyrimido[4,5-b]indol-9-yl)acetyl)-N-(6-bromopyridin-2-yl)-5-methyl-2-azabicyclo[3.1.0]hexane-3-carboxamide] | < 0.1 µM |
| COC(=O)c1cc(OC)c2c(c1)c1c(N)ncnc1n2CC(=O)N1[C@H](C(=O)Nc2cccc(Br)n2)C[C@@]2(C)C[C@@H]12 [Compound 241a, methyl 4-amino-9-(2-((1R,3S,5R)-3-((6-bromopyridin-2-yl)carbamoyl)-5-methyl-2-azabicyclo[3.1.0]hexan-2-yl)-2-oxoethyl)-8-methoxy-9H-pyrimido[4,5-b]indole-6-carboxylate] | < 0.1 µM |
| Nc1ncnc2c1c1cccc(-c3ccccc3)c1n2CC(=O)N1[C@@H]2C[C@@H]2C[C@H]1C(=O)Nc1cccc(Br)n1 [Compound 244d, (1R,3S,5R)-2-(2-(4-amino-8-phenyl-9H-pyrimido[4,5-b]indol-9-yl)acetyl)-N-(6-bromopyridin-2-yl)-2-azabicyclo[3.1.0]hexane-3-carboxamide] | < 0.1 µM |
| CO[C@@H]1C[C@@H](C(=O)Nc2cccc(Br)n2)N(C(=O)Cn2c3ccc(C(F)(F)F)cc3c3c(N)ncnc32)C1 [Compound 248d, (2S,4R)-1-(2-(4-amino-6-(trifluoromethyl)-9H-pyrimido[4,5-b]indol-9-yl)acetyl)-N-(6-bromopyridin-2-yl)-4-methoxypyrrolidine-2-carboxamide] | > 1 µM |
| Nc1ncnc2c1c1cc(C(F)(F)F)ccc1n2CC(=O)N1C(=O)OC[C@H]1C(=O)NCc1cccc(Cl)c1F [Compound 251f, (S)-3-(2-(4-amino-6-(trifluoromethyl)-9H-pyrimido[4,5-b]indol-9-yl)acetyl)-N-(3-chloro-2-fluorobenzyl)-2-oxooxazolidine-4-carboxamide] | 0.1 to 1 µM |
| COc1ccc2c(c1)c1c(N)ncnc1n2CC(=O)N1[C@H](C(=O)Nc2nc(Br)ccc2C)C[C@@]2(C)C[C@@H]12 [Compound 252a, (1R,3S,5R)-2-(2-(4-amino-6-methoxy-9H-pyrimido[4,5-b]indol-9-yl)acetyl)-N-(6-bromo-3-methylpyridin-2-yl)-5-methyl-2-azabicyclo[3.1.0]hexane-3-carboxamide] | < 0.1 µM |
| COc1cccc2c3c(N)ncnc3n(CC(=O)N3[C@H](C(=O)Nc4nc(Br)ccc4C)C[C@@]4(C)C[C@@H]34)c12 [Compound 254a, (1R,3S,5R)-2-(2-(4-amino-8-methoxy-9H-pyrimido[4,5-b]indol-9-yl)acetyl)-N-(6-bromo-3-methylpyridin-2-yl)-5-methyl-2-azabicyclo[3.1.0]hexane-3-carboxamide] | < 0.1 µM |
| Cc1ccc(-c2cc(C)c3c(c2)c2c(N)ncnc2n3CC(=O)N2[C@H](C(=O)Nc3cccc(Br)n3)C[C@@]3(C)C[C@@H]23)cc1 [Compound 255c, (1R,3S,5R)-2-(2-(4-amino-8-methyl-6-(p-tolyl)-9H-pyrimido[4,5-b]indol-9-yl)acetyl)-N-(6-bromopyridin-2-yl)-5-methyl-2-azabicyclo[3.1.0]hexane-3-carboxamide] | < 0.1 µM |

Continued, values first:

| IC50 | Structure (SMILES) |
| --- | --- |
| < 0.1 µM | C[C@@]12C[C@@H](C(=O)Nc3cccc(Br)n3)N(C(=O)Cn3c4ccc(C(F)(F)F)nc4c4c(N)ncnc43)[C@@H]1C2 [Compound 231g, (1R,3S,5R)-2-(2-(4-amino-6-(trifluoromethyl)-9H-pyrido[2′,3′:4,5]pyrrolo[2,3-d]pyrimidin-9-yl)acetyl)-N-(6-bromopyridin-2-yl)-5-methyl-2-azabicyclo[3.1.0]hexane-3-carboxamide] |
| < 0.1 µM | Nc1ncnc2c1cc1n2C(C(=O)N2[C@@H](C(=O)Nc3cccc(Br)n3)C[C@@H]3C[C@@H]32)Oc2ccccc2-1 (stereo partly drawn) [Compound 233h, (1S,3R,5S)-2-(11-amino-6H-benzo[e]pyrimido[5′,4′:4,5]pyrrolo[1,2-c][,3]oxazine-6-carbonyl)-N-(6-bromopyridin-2-yl)-2-azabicyclo[3.1.0]hexane-3-carboxamide] |
| > 1 µM | O=C1NCc2cnc3c(ccn3CC(=O)N3C[C@H](F)C[C@H]3C(=O)NCc3cccc(Cl)c3F)c2N1 [Compound 235a, (2S,4R)—N-(3-chloro-2-fluorobenzyl)-4-fluoro-1-(2-(2-oxo-3,4-dihydro-1H-pyrrolo[3′,2′:5,6]pyrido[4,3-d]pyrimidin-7 (2H)-yl)acetyl)pyrrolidine-2-carboxamide] |
| < 0.1 µM | Nc1ncnc2c1c1cc(Cl)ccc1n2CC(=O)N1[C@@H]2C[C@@H]2C[C@H]1C(=O)Nc1cccc(Br)n1 [Compound 236f, (1R,3S,5R)-2-(2-(4-amino-6-chloro-9H-pyrimido[4,5-b]indol-9-yl)acetyl)-N-(6-bromopyridin-2-yl)-2-azabicyclo[3.1.0]hexane-3-carboxamide] |
| < 0.1 µM | C[C@@]12C[C@@H](C(=O)Nc3cccc(Br)n3)N(C(=O)Cn3c4ccc(Cl)cc4c4c(N)ncnc43)[C@@H]1C2 [Compound 237a, (1R,3S,5R)-2-(2-(4-amino-6-chloro-9H-pyrimido[4,5-b]indol-9-yl)acetyl)-N-(6-bromopyridin-2-yl)-5-methyl-2-azabicyclo[3.1.0]hexane-3-carboxamide] |
| < 0.1 µM | COC(=O)c1cc(OC)c2c(c1)c1c(N)ncnc1n2CC(=O)N1[C@@H]2C[C@@H]2C[C@H]1C(=O)Nc1cccc(Br)n1 [Compound 240g, methyl 4-amino-9-(2-((1R,3S,5R)-3-((6-bromopyridin-2-yl)carbamoyl)-2-azabicyclo[3.1.0]hexan-2-yl)-2-oxoethyl)-8-methoxy-9H-pyrimido[4,5-b]indole-6-carboxylate] |
| < 0.1 µM | COc1cc([N+](=O)[O-])cc2c3c(N)ncnc3n(CC(=O)N3[C@@H]4C[C@@H]4C[C@H]3C(=O)Nc3cccc(Br)n3)c12 [Compound 242g, (1R,3S,5R)-2-(2-(4-amino-8-methoxy-6-nitro-9H-pyrimido[4,5-b]indol-9-yl)acetyl)-N-(6-bromopyridin-2-yl)-2-azabicyclo[3.1.0]hexane-3-carboxamide] |
| < 0.1 µM | COc1cc([N+](=O)[O-])cc2c3c(N)ncnc3n(CC(=O)N3[C@H](C(=O)Nc4cccc(Br)n4)C[C@@]4(C)C[C@@H]34)c12 [Compound 243a, (1R,3S,5R)-2-(2-(4-amino-8-methoxy-6-nitro-9H-pyrimido[4,5-b]indol-9-yl)acetyl)-N-(6-bromopyridin-2-yl)-5-methyl-2-azabicyclo[3.1.0]hexane-3-carboxamide] |
| < 0.1 µM | C[C@@]12C[C@@H](C(=O)Nc3cccc(Br)n3)N(C(=O)Cn3c4ncnc(N)c4c4cccc(-c5ccccc5)c43)[C@@H]1C2 [Compound 245a, (1R,3S,5R)-2-(2-(4-amino-8-phenyl-9H-pyrimido[4,5-b]indol-9-yl)acetyl)-N-(6-bromopyridin-2-yl)-5-methyl-2-azabicyclo[3.1.0]hexane-3-carboxamide] |
| < 0.1 µM | Nc1ncnc2c1c1cc(C(F)(F)F)ccc1n2CC(=O)N1C[C@H](F)C[C@H]1C(=O)Nc1cccc(Cl)n1 [Compound 246b, (2S,4R)-1-(2-(4-amino-6-(trifluoromethyl)-9H-pyrimido[4,5-b]indol-9-yl)acetyl)-N-(6-chloropyridin-2-yl)-4-fluoropyrrolidine-2-carboxamide] |
| 0.1 to 1 µM | CO[C@H]1C[C@@H](C(=O)Nc2cccc(Br)n2)N(C(=O)Cn2c3ccc(C(F)(F)F)cc3c3c(N)ncnc32)C1 [Compound 247d, (2S,4S)-1-(2-(4-amino-6-(trifluoromethyl)-9H-pyrimido[4,5-b]indol-9-yl)acetyl)-N-(6-bromopyridin-2-yl)-4-methoxypyrrolidine-2-carboxamide] |
| < 0.1 µM | COc1cccc2c1c1c(N)ncnc1n2CC(=O)N1[C@H](C(=O)Nc2nc(Br)ccc2C)C[C@@]2(C)C[C@@H]12 [Compound 249a, (1R,3S,5R)-2-(2-(4-amino-5-methoxy-9H-pyrimido[4,5-b]indol-9-yl)acetyl)-N-(6-bromo-3-methylpyridin-2-yl)-5-methyl-2-azabicyclo[3.1.0]hexane-3-carboxamide] |
| > 1 µM | N#Cc1ccc(CNC(=O)[C@@H]2CCCN2C(=O)Cn2c3ccccc3c3c(N)ncnc32)cc1 [Compound 250b, (S)-1-(2-(4-amino-9H-pyrimido[4,5-b]indol-9-yl)acetyl)-N-(4-cyanobenzyl)pyrrolidine-2-carboxamide] |
| < 0.1 µM | COc1ccc2c3c(N)ncnc3n(CC(=O)N3[C@H](C(=O)Nc4nc(Br)ccc4C)C[C@@]4(C)C[C@@H]34)c2c1 [Compound 253a, (1R,3S,5R)-2-(2-(4-amino-7-methoxy-9H-pyrimido[4,5-b]indol-9-yl)acetyl)-N-(6-bromo-3-methylpyridin-2-yl)-5-methyl-2-azabicyclo[3.1.0]hexane-3-carboxamide] |
